# Like-named read-outs stand apart in the source and are kept apart here.
# Legend:
# HeLa (cervix) = experiment: Antiproliferative activity, NCI protocol; type: cell-based, human
# Experimental: (§1) Organochalcogen derivatives prepared herein were evaluated in vitro as potential antiproliferative agents, using a panel of six human tumour cell lines: A549 (non-small cell lung), HBL-100 (breast), HeLa (cervix), SW1573 (non-small cell lung), as drug sensitive lines, T-47D (breast) and WiDr (colon) as drug resistant lines. In addition to precursors 2, 6, 7, 13, 14, 17, 19, ebselen and cisplatin (CDDP) were used as reference drugs. […] In both cases, the NCI protocol, with minor modifications, was followed; selected data, including the selectivity index (S.I.) can be found in Table 3 and full data in Supporting Information (Table S1).
# (§2) The in vitro antiproliferative activity was assayed using minor modifications of the protocol of the National Cancer Institute (NCI) of the United States against the six human solid tumor cell and the non-tumor cell lines tested.
# [1] = system: SW1573 (non-small cell lung); experiment: Antiproliferative activity, NCI protocol; type: cell-based, human
# Experimental: as §1, §2
# T-47D (breast) = experiment: Antiproliferative activity, NCI protocol; type: cell-based, human; conditions: read-out: GI50 T-47D (Breast)
# Experimental: as §1, §2
# [2] = system: A549 (non-small cell lung); experiment: Antiproliferative activity, NCI protocol; type: cell-based, human
# Experimental: as §1, §2
# HBL-100 (breast) = experiment: Antiproliferative activity, NCI protocol; type: cell-based, human
# Experimental: as §1, §2
# WiDr (colon) = experiment: Antiproliferative activity, NCI protocol; type: cell-based, human; conditions: read-out: GI50 WiDr (Colon)
# Experimental: as §1, §2
# SW1573 = experiment: P-glycoprotein assay, wild type line; type: cell-based; conditions: Homo sapiens, 48 h exposure
# Experimental: (§3) This assay allows prediction of whether a certain chemotherapeutic agent could develop chemoresistance when behaving as a P-gp substrate, one of the most common efllux-pumps used for the extrusion of cell xenobiotics. For that purpose, a cell line-based assay was used, in particular the lung cancer cell line in its wild type (SW1573), and its variant overexpressing P-gp (Sw1573/Pgp). Moreover, compounds were tested in the presence and in the absence of verapamil, which is known to inhibit P-gp. Chemotherapeutic agents paclitaxel (PTX) and vinblastine (VB) are used herein as reference compounds. In this assay, the resistance factor (Rf) for a certain compound is defined as the ratio of GI50 in the cell line overexpressing P-gp and the wild one (Table 4), high values of Rf denoting that the compound behaves as a P-gp substrate, and thus, chemoresistance through this mechanism will probably take place.
# [3] = Free radical scavenging (DPPH method); conditions: 30 min incubation, absorbance at 515 nm, read-out: EC50 antiradical activity (DPPH)
# Experimental: (§4) In vitro antioxidant properties of key unprotected phenolic derivatives were analyzed using two different methodologies: free radical scavenging capacity, using the DPPH method (2,2-diphenyl-1-picrylhydrazyl), a HAT (hydrogen atom transfer) procedure, widely-used for both natural and synthetic derivatives, and also the capacity for scavenging H2O2, one of the most common ROS in degenerative diseases, including cancer.
# DPPH is a commercially-available stable free radical commonly used for in vitro testing of radical scavenging properties of antioxidants.
# Reported methodology was used with minor modifications. To a 60 µM methanolic DPPH solution (1.17 mL), the antioxidant solution (5–7 different solutions, 30 µL) or solvent (control, 30 µL) were added. After 30 min. of incubation in the dark, absorbance was measured at 515 nm, and EC50 values were calculated.
# [4] = P-glycoprotein assay, line overexpressing P-gp; type: cell-based, human; conditions: human, 48 h exposure
# Experimental: as §3
# SW1573/Pgp = experiment: P-glycoprotein assay, line overexpressing P-gp; type: cell-based, human; conditions: ratio between GI50 values in SW1573/PGP and SW1573 cells; for Rf w Verapamil: with verapamil; for Rf w/o Verapamil: without verapamil
# Experimental: as §3
# [5] = H2O2 scavenging (phenol red / horseradish peroxidase); conditions: At 50 µM
# Experimental: as §4
# Herein, following Bahorun’s methodology, in vitro levels of H2O2 were measured in an indirect fashion, by registering the H2O2-mediated oxidation of phenol red in the presence of horseradish peroxidase, to give a chromophore with a maximum absorption at 610 nm. Accordingly, in the presence of an antioxidant agent, there is an inverse correlation between the observed absorbance, and the scavenging properties. Table 2 depicts the H2O2-scavenging properties of compounds prepared herein, and tested at a final 50 µM concentration.
# Reported methodology was used with minor modifications.
# [6] = system: six human tumour cell lines (A549, HBL-100, HeLa, SW1573, T-47D, WiDr); experiment: Antiproliferative activity, panel of six human tumour cell lines; type: cell-based; conditions: summary over the tested tumour cell lines, highest tested concentration 100 µM
# Experimental: as §1, §2
# [7] = Homo sapiens, HeLa, read-out: GI50 HeLa (Cervix)
# [8] = Homo sapiens, SW1573, read-out: GI50 SW1573 (Lung)
# [9] = Homo sapiens, A549, read-out: GI50 A549 (Lung)
# [10] = Homo sapiens, HBL-100, read-out: GI50 HBL-100 (Breast)
# [11] = Homo sapiens, HeLa; read-out: GI50 HeLa (Cervix)
# [12] = Homo sapiens, SW1573, Table S1, read-out: GI50 SW1573 (Lung)
# [13] = Homo sapiens, T47D, drug resistant line
# [14] = Homo sapiens, A549; read-out: GI50 A549 (Lung)
# [15] = Homo sapiens, HBL-100; read-out: GI50 HBL-100 (Breast)
# [16] = Homo sapiens, WiDr, drug resistant line
# [17] = with verapamil, reference drugs, read-out: GI50 SW153 w Verapamil
# [18] = without verapamil, reference drugs, read-out: GI50 SW1573 w/o Verapamil
# [19] = with verapamil (concentration not stated), with verapamil, reference drugs, read-out: GI50 SW1573/PGP w Verapamil
compound,measurement,setting,value
3-phenylselenopropanoic acid [Compound 17],GI50,HeLa (cervix); read-out: GI50 HeLa (Cervix),> 100 µM
same,GI50,"[1]; Table S1, read-out: GI50 SW1573 (Lung)",> 100 µM
same,GI50,T-47D (breast); drug resistant line,> 100 µM
same,GI50,[2]; read-out: GI50 A549 (Lung),> 100 µM
same,GI50,HBL-100 (breast); read-out: GI50 HBL-100 (Breast),> 100 µM
same,GI50,WiDr (colon); drug resistant line,> 100 µM
"O=C(O)CCC[Se][Se]CCCC(=O)O [Compound 14, 4,4′-Diselenobisbutyric acid]",GI50,HeLa (cervix); [7],44 ± 13 µM
same,GI50,[1]; [8],> 100 µM
same,GI50,"T-47D (breast); Homo sapiens, T47D",50 ± 14 µM
same,GI50,[2]; [9],46 ± 14 µM
same,GI50,HBL-100 (breast); [10],> 100 µM
same,GI50,"WiDr (colon); Homo sapiens, WiDr",54 ± 6 µM
"O=C(CC[Se][Se]CCC(=O)NCCc1ccc(O)c(O)c1)NCCc1ccc(O)c(O)c1 [Compound 15, 3,3′-Diselenobis{N-[2′’-(3′’’,4′’’-dihydroxyphenyl)ethyl]propanamide}]",GI50,"SW1573; with verapamil, read-out: GI50 SW153 w Verapamil",5 ± 0.7 µM
same,GI50,"SW1573; without verapamil, read-out: GI50 SW1573 w/o Verapamil",3.3 ± 0.4 µM
same,GI50,HeLa (cervix); [11],3.6 ± 1.1 µM
same,GI50,[1]; [12],5.9 ± 1.3 µM
same,GI50,T-47D (breast); [13],39 ± 5 µM
same,GI50,[2]; [14],5.4 ± 1.1 µM
same,GI50,HBL-100 (breast); [15],29 ± 6 µM
same,GI50,WiDr (colon); [16],31 ± 7 µM
same,EC50,[3],7.8 ± 0.2 µM
same,GI50 at 48 h,"[4]; with verapamil (concentration not stated), with verapamil, read-out: GI50 SW1573/PGP w Verapamil",5.3 ± 0.3 µM
same,GI50 at 48 h,"[4]; without verapamil, read-out: GI50 SW1573/PGP w/o Verapamil",5 ± 0.1 µM
same,Rf w Verapamil,SW1573/Pgp,1.1
same,Rf w/o Verapamil,SW1573/Pgp,1.5
same,% Scavenging of H2O2,[5],40.0 ± 3.1%
"CC[C@]1(O)C[C@@H]2CN(CCc3c([nH]c4ccccc34)[C@@](C(=O)OC)(c3cc4c(cc3OC)N(C)[C@H]3[C@@](O)(C(=O)OC)[C@H](OC(C)=O)[C@]5(CC)C=CCN6CC[C@]43[C@@H]65)C2)C1 [VB, vinblastine, reference compound]",GI50,SW1573; [17],0.0008 ± 0.0002 µM
same,GI50,SW1573; [18],0.0009 ± 0.0003 µM
same,GI50 at 48 h,[4]; [19],0.001 ± 0.0005 µM
same,Rf w Verapamil,SW1573/Pgp,1.3
same,Rf w/o Verapamil,SW1573/Pgp,2388
"CC(=O)O[C@H]1C(=O)[C@@]2(C)[C@H]([C@H](OC(=O)c3ccccc3)[C@]3(O)C[C@H](OC(=O)[C@H](O)[C@@H](NC(=O)c4ccccc4)c4ccccc4)C(C)=C1C3(C)C)[C@]1(OC(C)=O)CO[C@@H]1C[C@@H]2O [PTX, paclitaxel, reference compound]",GI50,SW1573; [17],0.0016 ± 0.0002 µM
same,GI50,SW1573; [18],0.0015 ± 0.0005 µM
same,GI50 at 48 h,[4]; [19],0.0042 ± 0.0009 µM
same,Rf w Verapamil,SW1573/Pgp,2.6
same,Rf w/o Verapamil,SW1573/Pgp,128
"O=C(CCSSCCC(=O)NCCc1ccc(O)c(O)c1)NCCc1ccc(O)c(O)c1 [Compound 9, 3,3′-Dithiobis{N-[2′’-(3′’’,4′’’-dihydroxyphenyl)ethyl]propanamide}]",GI50,"[6]; Homo sapiens, read-out: GI50 over the tumour cell lines (range, bound or words)",< 45 µM
same,GI50,HeLa (cervix); [11],28 ± 2 µM
same,GI50,[1]; [12],42 ± 6 µM
same,GI50,T-47D (breast); [13],45 ± 19 µM
same,GI50,[2]; [14],32 ± 1 µM
same,GI50,HBL-100 (breast); [15],31 ± 7 µM
same,GI50,WiDr (colon); [16],> 100 µM
same,EC50,[3],4.2 ± 0.1 µM
"NCCc1ccc(O)c(O)c1 [Dopamine, dopamine, reference compound]",EC50,[3],11.4 ± 1.2 µM
same,% Scavenging of H2O2,[5],46.1 ± 4.6%
"O=C(O)CSSCC(=O)O [Compound 6, Dithiodiacetic acid]",GI50,HeLa (cervix); [11],> 100 µM
same,GI50,[1]; [12],> 100 µM
same,GI50,T-47D (breast); [13],> 100 µM
same,GI50,[2]; [14],> 100 µM
same,GI50,HBL-100 (breast); [15],> 100 µM
same,GI50,WiDr (colon); [16],> 100 µM
"c1cc2c(cc1CCC[Se][Se]CCCc1ccc3c(c1)OCO3)OCO2 [Compound 41, Bis[3-(3’, 4’-methylenedioxyphenyl)propyl]diselenide]","GI50 over the tumour cell lines (range, bound or words)",[6],only a moderate antiproliferative agent
same,GI50,HeLa (cervix); [7],31 ± 8 µM
same,GI50,[1]; [8],37 ± 15 µM
same,GI50,"T-47D (breast); Homo sapiens, T47D",29 ± 5 µM
same,GI50,[2]; [9],32 ± 8 µM
same,GI50,HBL-100 (breast); [10],93 ± 10 µM
same,GI50,"WiDr (colon); Homo sapiens, WiDr",29 ± 8 µM
